Test results taken from US10258043B2, “Pesticide compositions and methods for controlling invertebrate pests” (Adama Makhteshim Ltd., priority 2012, dated 2019).

Test system: German cockroaches
Assay: Second series of evaluations: pyriproxyfen and novaluron alone and in combination on three substrates
Assay type: in vivo
Details: preliminary results
Method: Ceramic tile, vinyl tile, and unpainted plywood panels measuring 6″×6″ were cleaned using soapy water to remove any residue left over from the manufacturing process and left to dry overnight. Six (6) L plastic storage boxes (Sterlite®) with lids were purchased from a local hardware store (Home Depot, Riverbank, Calif.) and cleaned as well and allowed to dry. Each substrate was treated with 0.95 mL of test material (1 gallon/1,000 ft^2 equivalent) prepared in accordance with Example 1 using a Pipetteman 1000, with the material being evenly distributed over the entire surface of the substrate using an acid brush. The material was allowed to dry and the substrates were placed into the plastic storage boxes, one per box. A 5 cm Petri dish was filled with dog food and a slice of orange for nourishment, and a water tube was added for moisture. The food dish was placed directly on the treated substrate to force exposure of the cockroaches. A 6″ rolled piece of corrugated cardboard was placed in each replicate for harborage. A thin layer of petroleum jelly/mineral oil was applied to the rim to prevent escape.
Approximately forty (40) second and third instar nymphs were placed in each replicate and the lid was placed on top. Five replicates were prepared, one for each of the four treatments set forth in Table 2 and an untreated control. […]

SMILES	Morphological characteristics of juvenoid activity (individuals alive in these treatment groups)	Molting abnormalities of mid-instar cockroaches (all three substrates)
CC(COc1ccc(Oc2ccccc2)cc1)Oc1ccccn1 (centres unmarked) [pyriproxyfen, 4-phenoxyphenyl 2-(2-pyridyloxy)propyl ether]	twisted wings and darkened cuticle	–
O=C(NC(=O)c1c(F)cccc1F)Nc1ccc(OC(F)(F)C(F)OC(F)(F)F)c(Cl)c1 (racemic) [novaluron, (RS)-1-[3-chloro-4-(1,1,2-trifluoro-2-trifluoromethoxyethoxy)phenyl]-3-(2,6-difluorobenzoyl)urea]	–	molting abnormalities
